Test results as given in PubChem BioAssay AID2060357 (Molecular Pharmacology Branch, DTP, NCI, 2025).
“And” between values parts separate entries of the source, which are not always exact repeats. Equal entries are not always repeated.

Test system: 292921-168-R-J2-PDC spheroids with HUVEC/MSC, viability
Experiment: Anticancer human tumor 292921-168-R-J2-PDC patient-derived pancreatic carcinoma cell line growth inhibition [TAK]
Details: for viability, T/C: stronger effect = lower value
Description: Combinatorial screen of targeted agents with TAK-243 and ipatasertib in multi-cell type tumor spheroids
A high-throughput screen of multi-cell type tumor spheroids was designed to identify active combinations of targeted small molecules and TAK-243 or ipatasertib. Complex spheroids include a stromal component modeled by human endothelial cells (HUVEC) and fibroblasts modeled by human mesenchymal stem cells (MSCs). The concentration ranges selected for each drug and investigational agent were based upon clinically achievable concentrations if the clinical Cmax of the agent was known.
Compounds. The drugs and investigational agents: TAK-243 (785004), ipatasertib (767898), everolimus (733504), selumetinib (741078), bortezomib (756655), trametinib (758246), ixazomib (758254), vemurafenib (761431), dabrafenib (764134), sapanisertib (764658), alpelisib (765974), and copanlisib (816437), were obtained from the National Cancer Institute (NCI) Developmental Therapeutics Program Chemical Repository. The FDA-approved anticancer drug set is available from the NCI Developmental Therapeutics Program. […] The stock solutions were prepared in dimethyl sulfoxide (DMSO, Sigma-Aldrich, St. Louis, MO, cat. D2650) at 800-fold the tested concentration and stored at -70 degrees C prior to their use. All drugs and investigational agents were tested over a range starting from a high concentration at or near the clinical Cmax and decreasing in half-log increments. If the clinical Cmax for an agent had not been determined, the highest concentration tested was 10 microM.
NCI60 Cell Culture. NCI60 cell lines were obtained from the NCI Developmental Therapeutics Program Tumor Repository. For each lot of cells, the Repository performed Applied Biosystems AmpFLSTR Identifiler testing with PCR amplification to confirm consistency with the published Identifier STR profile for each cell line. Cells were kept in continuous culture for no more than 20 passages. The optimal seeding densities for each of the cell lines at each time point assessed were determined prior to performing the concentration response studies. Briefly, the NCI60 human tumor lines were grown as monolayers in RPMI 1640 medium supplemented with 10% FBS and 2 mmol/L L-glutamine.
An additional 2 lines were from the NCI60 cell line panel including melanomas, MALME-3M and SK-MEL-2. Pooled donor human umbilical vein endothelial cells (HUVEC, Lonza, cat. CC-2519) and human mesenchymal stem cells (hMSC, Lonza, cat. PT-2501) were purchased from Lonza (Walkersville, MD).
PDMR cell lines were grown in complete medium (DC medium): Dulbecco's modified Eagle's medium (DMEM)/F12 supplemented with 5% fetal bovine serum (FBS), 2 mM L-glutamine, 100 U/mL penicillin and 100 µg/ml streptomycin, 0.4 µg/ml hydrocortisone, 10 ng/ml epidermal growth factor (EGF) recombinant human protein, 24 µg/mL adenine, and 0.1 mg/mL primocin. During culture from frozen stock vials, PDMR cells were cultured in the same medium containing 10 µM Y-27632 (see Table 3). The PDCs were cultured in complete DMEM/F12 media without 10 microM Y-27632 dihydrochloride for at least two passages prior to the screen. The pooled donor HUVEC and hMSC were cultured in endothelial cell growth medium 2 (PromoCell, Heidelberg, Germany, cat. C-22011) and mesenchymal stem cell growth medium 2 (PromoCell, cat. C-28009), respectively. For all experiments, HUVEC and hMSC were used at passages </=5.
For the pre-screen, cell seeding densities were determined from a titration spanning the range from 5,000 to 313 cells per well. The mct-spheroids including 60% malignant cells, 25% HUVEC and 15% MSC dispensed as a mixture into U-bottom Ultra-Low Attachment 384-well plates (Corning, NY)
High-throughput Drug Combination Screening.
Prior to their inoculation into 384-well plates, malignant cells, HUVEC, and hMSC were removed from T flasks using TrypLE express (Thermo Fisher Scientific, cat. 12605036) and harvested by centrifugation for 5 min at 233 x g. […]

[1] = curve of first compound, second compound 0.3 µM
[2] = curve of first compound, second compound 0.949 µM
[3] = curve of first compound, second compound 3 µM
[4] = curve of first compound, second compound 9.49 µM
[5] = curve of first compound, second compound 30 µM
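Note: spheroids exposed to drugs for seven days before readout.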

Structure (SMILES): CCCS(=O)(=O)Nc1ccc(F)c(C(=O)c2c[nH]c3ncc(-c4ccc(Cl)cc4)cc23)c1F + CC(C)NCC(C(=O)N1CCN(c2ncnc3c2C(C)CC3O)CC1)c1ccc(Cl)cc1
- IC50 [1]: 29900 nM
- IC50 [2]: > 100000 nM
- IC50 [3]: 11000 nM
- IC50 [4]: 5500 nM
- IC50 [5]: < 316 nM
- viability, T/C (second compound 0.3 µM, first compound 0.316 µM): 109%
- viability, T/C (second compound 0.3 µM, first compound 1 µM): 106%
- viability, T/C (second compound 0.3 µM, first compound 3.16 µM): 102%
- viability, T/C (second compound 0.3 µM, first compound 10 µM): 67.5%
- viability, T/C (second compound 0.3 µM, first compound 31.6 µM): 44.7%
- viability, T/C (second compound 0.3 µM, first compound 100 µM): 52.2%
- viability, T/C (second compound 0.949 µM, first compound 0.316 µM): 95.2%
- viability, T/C (second compound 0.949 µM, first compound 1 µM): 104%
- viability, T/C (second compound 0.949 µM, first compound 3.16 µM): 89.6%
- viability, T/C (second compound 0.949 µM, first compound 10 µM): 52.5%
- viability, T/C (second compound 0.949 µM, first compound 31.6 µM): 41.4%
- viability, T/C (second compound 0.949 µM, first compound 100 µM): 65.2%
- viability, T/C (second compound 3 µM, first compound 0.316 µM): 94.7%
- viability, T/C (second compound 3 µM, first compound 1 µM): 96%
- viability, T/C (second compound 3 µM, first compound 3.16 µM): 81.3%
- viability, T/C (second compound 3 µM, first compound 10 µM): 44.2%
- viability, T/C (second compound 3 µM, first compound 31.6 µM): 41%
- viability, T/C (second compound 3 µM, first compound 100 µM): 16.8%
- viability, T/C (second compound 9.49 µM, first compound 0.316 µM): 72.5%
- viability, T/C (second compound 9.49 µM, first compound 1 µM): 75.4%
- viability, T/C (second compound 9.49 µM, first compound 3.16 µM): 62.5%
- viability, T/C (second compound 9.49 µM, first compound 10 µM): 35.5%
- viability, T/C (second compound 9.49 µM, first compound 31.6 µM): 26.2%
- viability, T/C (second compound 9.49 µM, first compound 100 µM): 17.7%
- viability, T/C (second compound 30 µM, first compound 0.316 µM): 48.3%
- viability, T/C (second compound 30 µM, first compound 1 µM): 49.2%
- viability, T/C (second compound 30 µM, first compound 3.16 µM): 35.7%
- viability, T/C (second compound 30 µM, first compound 10 µM): 16.6%
- viability, T/C (second compound 30 µM, first compound 31.6 µM): 14.9%
- viability, T/C (second compound 30 µM, first compound 100 µM): 9.5%

Structure (SMILES): CC(=O)Nc1cccc(-n2c(=O)n(C3CC3)c(=O)c3c(Nc4ccc(I)cc4F)n(C)c(=O)c(C)c32)c1
- viability, T/C (compound 94.9 pM): 91.6% and 97.1%
- viability, T/C (compound 0.0003 µM): 58.9% and 67.7%
- viability, T/C (compound 0.000949 µM): 36.9% and 48.5%
- viability, T/C (compound 0.003 µM): 25.6% and 25.7%
- viability, T/C (compound 0.00949 µM): 17.6% and 20.3%
- viability, T/C (compound 0.03 µM): 11.1%
- IC50 (curve of compound): 0.49 nM and 0.767 nM

Structure (SMILES): CC(C)n1nc(-c2ccc3oc(N)nc3c2)c2c(N)ncnc21
- viability, T/C (compound 0.000316 µM): 101% and 103%
- viability, T/C (compound 0.001 µM): 87.1% and 91%
- viability, T/C (compound 0.00316 µM): 75.5% and 74.6%
- viability, T/C (compound 0.01 µM): 61.5% and 58.3%
- viability, T/C (compound 0.0316 µM): 40.3% and 43%
- viability, T/C (compound 0.1 µM): 31.9% and 32.7%
- IC50 (curve of compound): 19.3 nM and 18.6 nM

Structure (SMILES): CC(C)CC(NC(=O)C(Cc1ccccc1)NC(=O)c1cnccn1)B(O)O (stereo unspecified)
- viability, T/C (compound 31.6 pM): 99.4% and 103%
- viability, T/C (compound 0.0001 µM): 102%
- viability, T/C (compound 0.000316 µM): 104% and 107%
- viability, T/C (compound 0.001 µM): 96.7% and 104%
- viability, T/C (compound 0.00316 µM): 88.3% and 74.9%
- viability, T/C (compound 0.01 µM): 7.89% and 7.64%
- IC50 (curve of compound): 5.46 nM and 4.85 nM

Structure (SMILES): CC(C)CC(NC(=O)CNC(=O)c1cc(Cl)ccc1Cl)B1OC(=O)CC(CC(=O)O)(C(=O)O)O1 (stereo unspecified) + CC(C)NCC(C(=O)N1CCN(c2ncnc3c2C(C)CC3O)CC1)c1ccc(Cl)cc1
- IC50 [1]: 27.6 nM
- IC50 [2]: 23.9 nM
- IC50 [3]: 23.7 nM
- IC50 [4]: 17.9 nM
- IC50 [5]: < 0.316 nM
- viability, T/C (second compound 0.3 µM, first compound 0.000316 µM): 91.7%
- viability, T/C (second compound 0.3 µM, first compound 0.001 µM): 86.2%
- viability, T/C (second compound 0.3 µM, first compound 0.00316 µM): 88.8%
- viability, T/C (second compound 0.3 µM, first compound 0.01 µM): 86.2%
- viability, T/C (second compound 0.3 µM, first compound 0.0316 µM): 45.2%
- viability, T/C (second compound 0.3 µM, first compound 0.1 µM): 10.8%
- viability, T/C (second compound 0.949 µM, first compound 0.000316 µM): 84.6%
- viability, T/C (second compound 0.949 µM, first compound 0.001 µM): 85.8%
- viability, T/C (second compound 0.949 µM, first compound 0.00316 µM): 85.2%
- viability, T/C (second compound 0.949 µM, first compound 0.01 µM): 85.5%
- viability, T/C (second compound 0.949 µM, first compound 0.0316 µM): 38.8%
- viability, T/C (second compound 0.949 µM, first compound 0.1 µM): 11%
- viability, T/C (second compound 3 µM, first compound 0.000316 µM): 75.8%
- viability, T/C (second compound 3 µM, first compound 0.001 µM): 80.2%
- viability, T/C (second compound 3 µM, first compound 0.00316 µM): 73.3%
- viability, T/C (second compound 3 µM, first compound 0.01 µM): 80.2%
- viability, T/C (second compound 3 µM, first compound 0.0316 µM): 40.9%
- viability, T/C (second compound 3 µM, first compound 0.1 µM): 9.38%
- viability, T/C (second compound 9.49 µM, first compound 0.000316 µM): 62%
- viability, T/C (second compound 9.49 µM, first compound 0.001 µM): 60.3%
- viability, T/C (second compound 9.49 µM, first compound 0.00316 µM): 60.4%
- viability, T/C (second compound 9.49 µM, first compound 0.01 µM): 68.2%
- viability, T/C (second compound 9.49 µM, first compound 0.0316 µM): 37.6%
- viability, T/C (second compound 9.49 µM, first compound 0.1 µM): 6.83%
- viability, T/C (second compound 30 µM, first compound 0.000316 µM): 41.4%
- viability, T/C (second compound 30 µM, first compound 0.001 µM): 41.2%
- viability, T/C (second compound 30 µM, first compound 0.00316 µM): 42.4%
- viability, T/C (second compound 30 µM, first compound 0.01 µM): 44.2%
- viability, T/C (second compound 30 µM, first compound 0.0316 µM): 31.8%
- viability, T/C (second compound 30 µM, first compound 0.1 µM): 7.05%

Structure (SMILES): Cc1nc(NC(=O)N2CCCC2C(N)=O)sc1-c1ccnc(C(C)(C)C(F)(F)F)c1 (stereo unspecified)
- viability, T/C (compound 0.0316 µM): 97.9% and 99.8%
- viability, T/C (compound 0.1 µM): 78.4% and 71.1%
- viability, T/C (compound 0.316 µM): 61.5% and 55.7%
- viability, T/C (compound 1 µM): 44.4% and 38.9%
- viability, T/C (compound 3.16 µM): 30.1% and 28.9%
- viability, T/C (compound 10 µM): 20.4% and 22.4%
- IC50 (curve of compound): 672 nM and 422 nM

Structure (SMILES): CC(C)NCC(C(=O)N1CCN(c2ncnc3c2C(C)CC3O)CC1)c1ccc(Cl)cc1 (stereo unspecified)
- viability, T/C (compound 0.3 µM): 87.8% [middle of 10 runs]
- viability, T/C (compound 0.949 µM): 83% [middle of 10 runs]
- viability, T/C (compound 3 µM): 77.3% [middle of 10 runs]
- viability, T/C (compound 9.49 µM): 62.3% [middle of 10 runs]
- viability, T/C (compound 30 µM): 42.4% [middle of 10 runs]
- IC50 (compound alone, run of 02/20/2020): 18800 nM

Structure (SMILES): CC(C)CC(NC(=O)CNC(=O)c1cc(Cl)ccc1Cl)B1OC(=O)CC(CC(=O)O)(C(=O)O)O1 (stereo unspecified)
- viability, T/C (compound 0.000316 µM): 99.7% and 104%
- viability, T/C (compound 0.001 µM): 107% and 92.5%
- viability, T/C (compound 0.00316 µM): 105% and 99.2%
- viability, T/C (compound 0.01 µM): 107% and 102%
- viability, T/C (compound 0.0316 µM): 37.5% and 35.4%
- viability, T/C (compound 0.1 µM): 11.4% and 6.93%
- IC50 (curve of compound): 25.5 nM and 24.4 nM
